In ChEMBL document CHEMBL3877269, “Structure-activity relationships and optimization of acyclic acylphloroglucinol analogues as novel antimicrobial agents” (Eur J Med Chem, 2017):
Converted amounts (≈) assume the structure as drawn. The source made the active and inactive calls. The calls are words filed in the database; no cut-off is given here.

Key:
[1] = system: Staphylococcus aureus; experiment: Disruption of cytoplasmic membrane potential in methicillin-resistant Staphylococcus aureus JCSC 2172 at 10 ug/ml after 4 hrs by SYTOX green dye based fluorescence assay; assay type: functional
[2] = system: Staphylococcus aureus; experiment: Antibacterial activity against methicillin-resistant Staphylococcus aureus JCSC 2172 after 8 to 12 hrs by resazurin dye based microdilution method; assay type: functional
[3] = system: Staphylococcus aureus; experiment: Antibacterial activity against drug-susceptible Staphylococcus aureus ATCC 6538 after 8 to 12 hrs by resazurin dye based microdilution method; assay type: functional
[4] = system: Bacillus subtilis; experiment: Antibacterial activity against Bacillus subtilis ATCC 11774 after 8 to 12 hrs by resazurin dye based microdilution method; assay type: functional
[5] = system: Bacillus cereus; experiment: Antibacterial activity against Bacillus cereus ATCC 10876 after 8 to 12 hrs by resazurin dye based microdilution method; assay type: functional
[6] = Cytotoxicity against mouse RAW264.7 cells assessed as reduction in cell viability after 24 hrs by MTT assay; assay type: toxicity
[7] = system: Bacillus thuringiensis; experiment: Antibacterial activity against Bacillus thuringiensis ATCC 10792 after 8 to 12 hrs by resazurin dye based microdilution method; assay type: functional
[8] = Selectivity ratio of IC50 for mouse RAW264.7 cells to MIC for methicillin-resistant Staphylococcus aureus JCSC 2172; assay type: ADME
[9] = system: Escherichia coli; experiment: Antibacterial activity against Escherichia coli ATCC 8739 after 8 to 12 hrs by resazurin dye based microdilution method; assay type: functional
[10] = system: Staphylococcus aureus; experiment: Bactericidal activity against methicillin-resistant Staphylococcus aureus JCSC 2172 assessed as 3-log reduction in bacterial colony at 4 times MIC after 10 hrs by time-kill assay; assay type: functional
[11] = Solubility of the compound in DMSO; assay type: physicochemical
[12] = system: Staphylococcus aureus; experiment: Bacteriostatic activity against methicillin-resistant Staphylococcus aureus JCSC 2172 at 0.5 to 2 times MIC up to 10 hrs by time-kill assay; assay type: functional
[13] = system: Staphylococcus aureus; experiment: Disruption of cytoplasmic membrane potential in methicillin-resistant Staphylococcus aureus JCSC 2172 at 8 times MIC after 4 hrs by SYTOX green dye based fluorescence assay; assay type: functional
[14] = system: Staphylococcus aureus; experiment: Potency index, ratio of vancomycin MIC to compound MIC for methicillin-resistant Staphylococcus aureus JCSC 2172; assay type: functional
[15] = system: Staphylococcus aureus; experiment: Bactericidal activity against methicillin-resistant Staphylococcus aureus JCSC 2172 assessed as 3-log reduction in bacterial colony at 4 times MIC up to 4 hrs by time-kill assay; assay type: functional
[16] = system: Staphylococcus aureus; experiment: Bactericidal activity against methicillin-resistant Staphylococcus aureus JCSC 2172 assessed as reduction in CFU count at 4 times MIC after 24 hrs by time-kill assay; assay type: functional; parameters: scale not given: the % may be the effect or the level left
[17] = system: Staphylococcus aureus; experiment: Bactericidal activity against methicillin-resistant Staphylococcus aureus JCSC 2172 assessed induction of membrane potential dissipation at 0.5 to 8 times MIC by DiSC3-5 probe based fluorescence assay; assay type: functional
[18] = system: Staphylococcus aureus; experiment: Induction of cell lysis in methicillin-resistant Staphylococcus aureus JCSC 2172 at 8 times MIC after 4 hrs by osmium tetroxide staining based scanning electron microscopic method; assay type: functional

Structure (SMILES) | MIC [2] | MIC [3] | MIC [4] | MIC [5] | IC50 at 24 h [6] | MIC [7] | selectivity ratio [8] | MIC [9] | further results
CC[C@H](C)[C@H](NC(=O)CN)C(=O)NCC(=O)N[C@@H](C)C(=O)N[C@H](C(=O)N[C@@H](CC(C)C)C(=O)N[C@@H](CCCCN)C(=O)N[C@H](C(=O)N[C@@H](CC(C)C)C(=O)N[C@H](C(=O)N[C@H](C(=O)NCC(=O)N[C@@H](CC(C)C)C(=O)N1CCC[C@H]1C(=O)N[C@@H](C)C(=O)N[C@@H](CC(C)C)C(=O)N[C@H](C(=O)N[C@@H](CO)C(=O)N[C@@H](Cc1c[nH]c2ccccc12)C(=O)N[C@H](C(=O)N[C@@H](CCCCN)C(=O)N[C@@H](CCCNC(=N)N)C(=O)N[C@@H](CCCCN)C(=O)N[C@@H](CCCNC(=N)N)C(=O)N[C@@H](CCC(N)=O)C(=O)N[C@@H](CCC(N)=O)C(N)=O)[C@@H](C)CC)[C@@H](C)CC)[C@@H](C)O)[C@@H](C)O)C(C)C)C(C)C |  |  |  |  |  |  |  |  | Activity [1]: Active
CCCC(=O)c1c(O)cc(O)c([C@@H](CC(C)C)C2=C(O)C(C)(C)C(=O)C(C)(C)C2=O)c1O | 32 µg/mL (≈ 71.7 µM) | 32 µg/mL (≈ 71.7 µM) |  |  |  |  |  |  | 
CC(C)C[C@@H](C1=C(O)C(C)(C)C(=O)C(C)(C)C1=O)c1c(O)cc(O)c(C(=O)Cc2ccccc2)c1O | 16 µg/mL (≈ 32.4 µM) | 16 µg/mL (≈ 32.4 µM) |  |  |  |  |  |  | 
CC(=O)c1c(O)cc(O)c([C@@H](CC(C)C)C2=C(O)C(C)(C)C(=O)C(C)(C)C2=O)c1O | 4 µg/mL (≈ 9.56 µM) | 4 µg/mL (≈ 9.56 µM) |  |  |  |  |  |  | 
CC(C)C[C@@H](C1=C(O)C(C)(C)C(=O)C(C)(C)C1=O)c1c(O)cc(O)c(C=O)c1O | > 32 µg/mL | > 32 µg/mL |  |  |  |  |  |  | 
CCCCCC(=O)c1c(O)cc(O)c([C@@H](CC(C)C)C2=C(O)C(C)(C)C(=O)C(C)(C)C2=O)c1O | 2 µg/mL (≈ 4.21 µM) | 2 µg/mL (≈ 4.21 µM) |  |  |  |  |  |  | 
CCCCCCCCC(=O)c1c(O)cc(O)c([C@@H](CC(C)C)C2=C(O)C(C)(C)C(=O)C(C)(C)C2=O)c1O | 0.5 µg/mL (≈ 0.968 µM) | 0.25 µg/mL (≈ 0.484 µM) | 0.25 µg/mL (≈ 0.484 µM) | 0.5 µg/mL (≈ 0.968 µM) | 8.2 µg/mL (≈ 15.9 µM) | 0.5 µg/mL (≈ 0.968 µM) | 16.4 | > 32 µg/mL | 
CC(C)C[C@@H](C1=C(O)C(C)(C)C(=O)C(C)(C)C1=O)c1c(O)cc(O)c(C(=O)C2CCCC2)c1O | > 32 µg/mL | 32 µg/mL (≈ 67.7 µM) |  |  |  |  |  |  | 
CC(C)C[C@@H](C1=C(O)C(C)(C)C(=O)C(C)(C)C1=O)c1c(O)cc(O)c(C(=O)C(C)C)c1O | 16 µg/mL (≈ 35.8 µM) | 16 µg/mL (≈ 35.8 µM) |  |  |  |  |  |  | 
CC(C)C[C@@H](C1=C(O)C(C)(C)C(=O)C(C)(C)C1=O)c1c(O)cc(O)c(C(=O)C2CCCCC2)c1O | 4 µg/mL (≈ 8.22 µM) | 4 µg/mL (≈ 8.22 µM) |  |  |  |  |  |  | 
CCCCCCCCCCC(=O)c1c(O)cc(O)c([C@@H](CC(C)C)C2=C(O)C(C)(C)C(=O)C(C)(C)C2=O)c1O | 0.5 µg/mL (≈ 0.918 µM) | 0.25 µg/mL (≈ 0.459 µM) | 0.25 µg/mL (≈ 0.459 µM) | 0.5 µg/mL (≈ 0.918 µM) | 11.1 µg/mL (≈ 20.4 µM) | 0.25 µg/mL (≈ 0.459 µM) | 22.2 | > 32 µg/mL | 
CCCCCCC(=O)c1c(O)cc(O)c([C@@H](CC(C)C)C2=C(O)C(C)(C)C(=O)C(C)(C)C2=O)c1O | 0.5 µg/mL (≈ 1.02 µM) | 0.5 µg/mL (≈ 1.02 µM) | 0.25 µg/mL (≈ 0.512 µM) | 0.5 µg/mL (≈ 1.02 µM) | 8.8 µg/mL (≈ 18 µM) | 0.5 µg/mL (≈ 1.02 µM) | 16.7 | > 32 µg/mL | 
CN[C@H](CC(C)C)C(=O)N[C@H]1C(=O)N[C@@H](CC(N)=O)C(=O)N[C@H]2C(=O)N[C@H]3C(=O)N[C@H](C(=O)N[C@H](C(=O)O)c4cc(O)cc(O)c4-c4cc3ccc4O)[C@H](O)c3ccc(c(Cl)c3)Oc3cc2cc(c3O[C@@H]2O[C@H](CO)[C@@H](O)[C@H](O)[C@H]2O[C@H]2C[C@](C)(N)[C@H](O)[C@H](C)O2)Oc2ccc(cc2Cl)[C@H]1O [VANCOMYCIN] |  |  | 0.13 µg/mL (≈ 0.0897 µM) | 0.25 µg/mL (≈ 0.173 µM) |  | 1 µg/mL (≈ 0.69 µM) |  | > 32 µg/mL | Activity [10]: Active
CCCCC(=O)c1c(O)cc(O)c([C@@H](CC(C)C)C2=C(O)C(C)(C)C(=O)C(C)(C)C2=O)c1O | 8 µg/mL (≈ 17.4 µM) | 4 µg/mL (≈ 8.68 µM) |  |  |  |  |  |  | 
CCCCCCCCCCCCCCCC(=O)c1c(O)cc(O)c([C@@H](CC(C)C)C2=C(O)C(C)(C)C(=O)C(C)(C)C2=O)c1O | 1 to 2 µg/mL (≈ 1.63 to 3.25 µM) | 1 µg/mL (≈ 1.63 µM) | 16 µg/mL (≈ 26 µM) | 8 µg/mL (≈ 13 µM) | 17.5 µg/mL (≈ 28.5 µM) | 2 µg/mL (≈ 3.25 µM) | 17.5 | > 32 µg/mL | solubility [11]: Insoluble
CCCCCCCCCCCCCC(=O)c1c(O)cc(O)c([C@@H](CC(C)C)C2=C(O)C(C)(C)C(=O)C(C)(C)C2=O)c1O | 1 µg/mL (≈ 1.7 µM) | 0.5 µg/mL (≈ 0.852 µM) | 8 µg/mL (≈ 13.6 µM) | 4 µg/mL (≈ 6.82 µM) | 13.1 µg/mL (≈ 22.3 µM) | 2 µg/mL (≈ 3.41 µM) | 13.1 | > 32 µg/mL | solubility [11]: Insoluble
CCC(=O)c1c(O)cc(O)c([C@@H](CC(C)C)C2=C(O)C(C)(C)C(=O)C(C)(C)C2=O)c1O | 8 µg/mL (≈ 18.5 µM) | 8 µg/mL (≈ 18.5 µM) |  |  |  |  |  |  | 
CC(C)C[C@@H](C1=C(O)C(C)(C)C(=O)C(C)(C)C1=O)c1c(O)cc(O)c(C(=O)C2CCC2)c1O | 16 µg/mL (≈ 34.9 µM) | 16 µg/mL (≈ 34.9 µM) |  |  |  |  |  |  | 
CCCCCCCCCC(=O)c1c(O)cc(O)c([C@@H](CC(C)C)C2=C(O)C(C)(C)C(=O)C(C)(C)C2=O)c1O | 0.25 µg/mL (≈ 0.471 µM) | 0.25 µg/mL (≈ 0.471 µM) | 0.25 µg/mL (≈ 0.471 µM) | 1 µg/mL (≈ 1.88 µM) | 5.1 µg/mL (≈ 9.61 µM) | 0.5 µg/mL (≈ 0.942 µM) | 20.4 | > 32 µg/mL | 
CCCCCCCC(=O)c1c(O)cc(O)c([C@@H](CC(C)C)C2=C(O)C(C)(C)C(=O)C(C)(C)C2=O)c1O | 0.25 µg/mL (≈ 0.497 µM) | 0.25 µg/mL (≈ 0.497 µM) | 0.13 µg/mL (≈ 0.259 µM) | 0.25 µg/mL (≈ 0.497 µM) | 5.1 µg/mL (≈ 10.1 µM) | 0.25 µg/mL (≈ 0.497 µM) | 20.4 | > 32 µg/mL | Activity [12]: >90%; Activity [13]: Active; Ratio [14]: 4; Activity [15]: Active; Activity [16]: 99.99%; Activity [17]: Active; Activity [18]: Active
CC(C)CC(=O)c1c(O)cc(O)c([C@@H](CC(C)C)C2=C(O)C(C)(C)C(=O)C(C)(C)C2=O)c1O | 8 µg/mL (≈ 17.4 µM) | 8 µg/mL (≈ 17.4 µM) |  |  |  |  |  |  | 
CC(C)C[C@@H](C1=C(O)C(C)(C)C(=O)C(C)(C)C1=O)c1c(O)cc(O)c(C(=O)CCc2ccccc2)c1O | 8 µg/mL (≈ 15.7 µM) | 4 µg/mL (≈ 7.86 µM) |  |  |  |  |  |  | 
CCCCCCCCCCCC(=O)c1c(O)cc(O)c([C@@H](CC(C)C)C2=C(O)C(C)(C)C(=O)C(C)(C)C2=O)c1O | 0.5 µg/mL (≈ 0.895 µM) | 0.5 µg/mL (≈ 0.895 µM) | 0.25 µg/mL (≈ 0.447 µM) | 1 µg/mL (≈ 1.79 µM) | 7.9 µg/mL (≈ 14.1 µM) | 0.5 µg/mL (≈ 0.895 µM) | 15.8 | > 32 µg/mL | 
